Laboratory results published in PubChem BioAssay (NCI).
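Protocol summary: plate cells (96-well), add compound at 5 concentrations, incubate 48 h, interpolate endpoints linearly. GI50 marks 50% less growth. TGI denotes the concentration required for complete inhibition of growth.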

What was measured:
Assay in all cases: DTP human tumour cell line panel, 48 h
IGROV1 ovarian = system: IGROV1 ovarian
RPMI-8226 leukemia = system: RPMI-8226 leukemia
MALME-3M melanoma = system: MALME-3M melanoma
HCC-2998 colon = system: HCC-2998 colon
MOLT-4 leukemia = system: MOLT-4 leukemia
HOP-92 NSCLC = system: HOP-92 NSCLC
HT29 colon = system: HT29 colon
PC-3 prostate = system: PC-3 prostate
RXF 393 renal = system: RXF 393 renal
HL-60(TB) leukemia = system: HL-60(TB) leukemia

SMILES | GI50 (IGROV1 ovarian) | TGI (IGROV1 ovarian) | GI50 (RPMI-8226 leukemia) | TGI (RPMI-8226 leukemia) | GI50 (MALME-3M melanoma) | TGI (MALME-3M melanoma) | GI50 (HCC-2998 colon) | TGI (HCC-2998 colon) | GI50 (MOLT-4 leukemia) | TGI (MOLT-4 leukemia) | GI50 (HOP-92 NSCLC) | TGI (HOP-92 NSCLC) | GI50 (HT29 colon) | TGI (HT29 colon) | GI50 (PC-3 prostate) | TGI (PC-3 prostate) | GI50 (RXF 393 renal) | TGI (RXF 393 renal) | GI50 (HL-60(TB) leukemia) | TGI (HL-60(TB) leukemia)
CCSc1ccc([C@@H]2[C@@H](N)C(=O)N2c2cc(OC)c(OC)c(OC)c2)cc1 | 1.43 µM | > 100 µM | 0.0862 µM | 46.9 µM | > 100 µM | > 100 µM | 0.755 µM | > 100 µM | 0.0528 µM | > 100 µM | 30.2 µM | > 100 µM | 0.0333 µM | 18 µM | 0.0773 µM | > 100 µM | 0.245 µM | > 100 µM | 0.0257 µM | 0.067 µM
COc1ccc(/C=C\c2cc(OC)c(OC)c(OC)c2)cc1OCC(=O)Nc1nc2ccccc2s1 | 0.221 µM | > 81.4 µM | 0.683 µM | > 100 µM | 0.338 µM | > 85.3 µM | 0.447 µM | > 100 µM | 0.366 µM | > 100 µM | 0.204 µM | > 31.1 µM | 2.72 µM | > 48.9 µM | 0.183 µM | > 100 µM | 0.0503 µM | 79.9 µM | 0.0275 µM | > 100 µM
Cc1ccc(-c2cc(-c3ccc(C)cc3)nc(N3CCN(CCNc4ccnc5cc(Cl)ccc45)CC3)n2)cc1 | 3.08 µM | 12.3 µM | 3.48 µM | > 50 µM | 1.07 µM | 2.28 µM | 4.82 µM | 16.2 µM | 6.25 µM | > 50 µM | 0.963 µM | 4.25 µM | 1.51 µM | 7.26 µM | 3.14 µM | 30.9 µM | 1.45 µM | 7.36 µM | 2.42 µM | 11.6 µM
CCOC(=O)c1ccccc1SC(C[N+](=O)[O-])c1ccccc1 (stereo not given) | 3.88 µM | 15 µM | 2.44 µM | 5.53 µM | 14.8 µM | 29.5 µM | 1.86 µM | 3.36 µM | 4.54 µM | 30.6 µM | 6.94 µM | 21.9 µM | 2.55 µM | 5.72 µM | 4.4 µM | 16.6 µM | 1.64 µM | 3.09 µM | 5.96 µM | 27.9 µM
O=C(Cn1c(C(=O)c2ccc(Cl)cc2)nc(-c2ccccc2)c1-c1ccccc1)c1ccc(Cl)cc1 | > 100 µM | > 100 µM | > 100 µM | > 100 µM | > 100 µM | > 100 µM | > 100 µM | > 100 µM | > 100 µM | > 100 µM | 23.9 µM | > 100 µM | > 100 µM | > 100 µM | > 100 µM | > 100 µM | > 100 µM | > 100 µM | > 100 µM | > 100 µM
Nc1nc(-c2ccc(Cl)cc2)cc(-c2ccc(Cl)cc2)c1-c1nc2ccccc2o1 | 16.1 µM | 34.3 µM | 13.7 µM | 28.3 µM | 14.4 µM | 29.9 µM | 16.9 µM | 33.3 µM | 12.1 µM | 27.4 µM | 6.24 µM | 21.2 µM | 11.1 µM | 36.1 µM | 13.2 µM | 27.1 µM | 14.1 µM | 33.5 µM | 17.9 µM | 37.2 µM
O=c1c2c(=NCCN3CCCC3)cc3c(=O)n(CCCN4CCOCC4)c(=O)c4ccc(c(O)n1CCCN1CCOCC1)c2c4-3 | 0.0479 µM | 1.5 µM | 0.146 µM | 1.09 µM | 0.346 µM | 1.22 µM | 0.0603 µM | 0.563 µM | < 0.0216 µM | 5.71 µM | 0.129 µM | 0.607 µM | < 0.0181 µM | 1.04 µM | 0.0919 µM | 0.638 µM | 0.104 µM | 0.266 µM | 0.338 µM | 1.43 µM
OCCn1cc(-c2cnc3nnn(Cc4ccc5ncccc5c4)c3n2)cn1 | > 100 µM | > 100 µM | > 100 µM | > 100 µM | > 100 µM | > 100 µM | > 100 µM | > 100 µM | > 100 µM | > 100 µM | 13 µM | > 100 µM | > 100 µM | > 100 µM | > 100 µM | > 100 µM | > 100 µM | > 100 µM | > 100 µM | > 100 µM
COc1cc(-c2nc(-c3ccc(-c4nc5ccc(F)cc5[nH]4)cc3)no2)cc(OC)c1OC | 3.81 µM | 14.5 µM | 1.94 µM | 5.35 µM | 2.32 µM | 6.52 µM | 6.13 µM | 40.4 µM | 1.99 µM | 5.44 µM | 1.76 µM | 13.9 µM | 3.69 µM | 17.7 µM | 2.33 µM | 7.59 µM | 1.9 µM | 5.44 µM | 2.24 µM | 5.35 µM
COc1cc(OC)c(F)c(COc2cnc(Nc3cnn(CCO)c3)nc2)c1F | 0.595 µM | > 100 µM | 1.03 µM | > 100 µM | 0.923 µM | 7.66 µM | 2.51 µM | > 100 µM | 0.668 µM | > 100 µM | 0.767 µM | 5.4 µM | 0.36 µM | 4.31 µM | 1.68 µM | > 100 µM | 0.188 µM | 2.44 µM | 0.245 µM | 0.702 µM
